Measured values published in paper PMC11568388 (Molecular Biology and Evolution, 2024).

Test system: Aplysia californica
Type: in vivo

| SMILES | Behavior vs saline-injected control (in vivo) | Behavioral phenotype (in vivo) | Onset of behavioral phenotype after injection (in vivo) [min] | Locomotion (n = 3) |
| --- | --- | --- | --- | --- |
| NCC(O)c1ccc(O)cc1 (stereo not shown) [octopamine] | did not alter A. californica behavior significantly different from control | – | – | – |
| NCCc1c[nH]c2ccc(O)cc12 [serotonin] | – | notable inability of the animal's foot to completely stick to the tank wall, resulting in impaired locomotion | ≤ 1 | immediate hyperlocomotive phenotype |
